Experimental data published in patent US20220087247A1, “MOUSE REPELLENTS, DEVICES, AND METHODS OF USING SUCH” (priority 2020, published 2022).

What was measured:
[1] = tested on: mosquitoes, beetles, and termites; conditions: known from prior knowledge; cited from earlier work
[2] = tested on: female house mice, Mus musculus (strain: CD-1); assay: Two-choice T-tube olfactometer bioassay: deterrence from approaching and feeding on a food bait; type: in vivo; conditions: Experiments 1 to 12; single test stimulus 100 μl or 100 mg on cotton ball next to food bait vs unscented chamber
From the text: Female house mice, Mus musculus (strain: CD-1®), were obtained from Charles River Laboratories Ltd (Saint-Constant, QC J5A 2E7, Canada) and cared for by Animal Care Services of Simon Fraser University (“SFU”). On arrival, mice were assigned to four groups of five female mice each. Each group was accommodated in cages (50 cm×40 cm×20 cm) lined with commercial corn cob bedding (Anderson's Bed o'cobs, The Andersons Inc. Maumee, Ohio 43537, USA), provided with Nalgene toys, running wheels (Jamieson's Pet Food Distributors, Ltd, Delta, BC V4G 1C9, Canada), and provisioned with commercial rodent food (LabDiet® Certified Rodent Diet, LabDiet®, St Louis, Mo. 63144, USA) as well as water ad libitum. Cages were maintained at a temperature of 21° C. and a relative humidity of 50%. A reverse photoperiod (12 hours light; 12 hours dark) was maintained to facilitate behavioral bioassays during normal working hours. […]
FIG. 3 depicts data obtained by additional testing of those plant essential oils found most promising in pre-screening experiments (Experiments 2, 5, 8, 9, and 11), running a total of 8 replicates for each of experiments 2, 5, 8, 9 and 11. First-choice, first-fed, and time-spent data were analyzed using g-tests and Student's t-tests, respectively, for these experiments. […]

## C=CCc1ccc(O)c(OC)c1 [Eugenol]
[1]
  repellency to insects: repellent

## CC1CCC(C(C)C)C(O)C1 (centres unmarked) [menthol, Menthol]
[2]
  first fed (scented chamber fed in first by mice): never fed in first
